Data as given in ChEMBL document CHEMBL1133187, “Novel antiarthritic agents with 1,2-isothiazolidine-1,1-dioxide (gamma-sultam) skeleton: cytokine suppressive dual inhibitors of cyclooxygenase-2 and 5-lipoxygenase” (J Med Chem, 2000).

Tests used:
[1] = tested on: Rattus norvegicus; assay: Percent inhibition of carrageenan-induced foot-pad edema at 30 mg/kg po; format: functional
[2] = tested on: THP-1; assay: In vitro effect on production of lipopolysaccharide (LPS) -induced IL1-beta in human THP-1 cells; format: functional, cell-based
[3] = species: Rattus norvegicus; assay: In vitro effect on production of calcium ionophore (A23187) -induced Leukotriene B4 (LTB4) in rat peritoneal cells; format: functional, cell-based
[4] = biological target: T1, Cyclooxygenase (Rattus norvegicus, UniProt P35355+Q63921)
T1 sequence (P35355 whole entry): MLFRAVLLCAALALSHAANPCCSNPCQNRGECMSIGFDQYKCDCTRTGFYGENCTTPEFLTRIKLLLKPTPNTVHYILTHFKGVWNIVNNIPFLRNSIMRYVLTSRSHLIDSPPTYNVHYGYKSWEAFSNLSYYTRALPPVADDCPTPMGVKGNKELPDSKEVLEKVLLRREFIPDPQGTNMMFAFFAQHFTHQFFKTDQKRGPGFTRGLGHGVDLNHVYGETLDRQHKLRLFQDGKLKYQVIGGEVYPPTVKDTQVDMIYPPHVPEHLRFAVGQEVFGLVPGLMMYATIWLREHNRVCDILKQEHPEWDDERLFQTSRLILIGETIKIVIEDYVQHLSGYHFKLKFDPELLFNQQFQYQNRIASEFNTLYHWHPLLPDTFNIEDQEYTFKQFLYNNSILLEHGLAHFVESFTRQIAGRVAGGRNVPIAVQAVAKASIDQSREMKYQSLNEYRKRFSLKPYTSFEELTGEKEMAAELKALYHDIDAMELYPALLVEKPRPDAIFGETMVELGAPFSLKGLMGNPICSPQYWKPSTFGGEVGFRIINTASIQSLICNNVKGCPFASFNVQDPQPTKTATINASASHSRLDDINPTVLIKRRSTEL
T1 sequence (Q63921 whole entry): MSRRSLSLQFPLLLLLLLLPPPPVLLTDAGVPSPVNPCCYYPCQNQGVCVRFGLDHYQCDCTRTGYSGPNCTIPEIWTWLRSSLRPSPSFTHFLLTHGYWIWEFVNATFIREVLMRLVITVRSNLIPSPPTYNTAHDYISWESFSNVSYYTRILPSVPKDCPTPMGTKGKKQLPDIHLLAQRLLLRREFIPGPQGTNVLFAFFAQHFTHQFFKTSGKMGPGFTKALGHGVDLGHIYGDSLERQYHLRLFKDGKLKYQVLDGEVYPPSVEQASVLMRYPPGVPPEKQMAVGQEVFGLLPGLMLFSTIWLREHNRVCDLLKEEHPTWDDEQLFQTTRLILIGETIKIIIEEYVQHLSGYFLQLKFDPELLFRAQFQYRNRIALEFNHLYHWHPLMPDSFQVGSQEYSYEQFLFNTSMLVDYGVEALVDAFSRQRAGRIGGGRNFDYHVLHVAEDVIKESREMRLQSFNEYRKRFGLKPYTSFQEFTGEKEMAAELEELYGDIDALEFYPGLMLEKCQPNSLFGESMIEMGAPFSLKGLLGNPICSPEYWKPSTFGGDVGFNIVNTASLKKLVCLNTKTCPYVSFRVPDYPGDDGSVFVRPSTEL
Description: In vitro inhibitory effect on production of prostaglandin E2 (PGE2) in rat synovial cells.

[5] = tested on: Rattus norvegicus; assay: Percent inhibition of adjuvant-induced arthritis at 10 mg/kg po; format: functional
[6] = tested on: THP-1; assay: In vitro inhibitory effect on production of, lipopolysaccharide (LPS) -induced IL1-beta in human THP-1 cells; format: functional, cell-based
[7] = species: Rattus norvegicus; assay: In vitro inhibitory effect on production of, calcium ionophore (A23187) -induced Leukotriene B4 (LTB4) in rat peritoneal cells; format: functional, cell-based
[8] = species: Rattus norvegicus; assay: In vitro inhibitory effect on production of, Prostaglandin E2 (PGE2) in rat synovial cells; format: functional
[9] = species: Rattus norvegicus; assay: Inhibitory effect for increase in plasma prostaglandin E2 (PGE2) level after arachidonic acid (AA) injection into COX-1 non-lipopolysaccharide-treated rats; format: functional
[10] = species: Rattus norvegicus; assay: Dose required for Ulcerogenic effect; format: functional
[11] = species: Rattus norvegicus; assay: Dose required for 30% inhibition of adjuvant-induced arthritis; format: functional
[12] = tested on: Rattus norvegicus; assay: Dose required for 30% inhibition of carrageenan-induced edema; format: functional
[13] = species: Rattus norvegicus; assay: Inhibitory effect for increase in plasma prostaglandin E2 (PGE2) level after arachidonic acid (AA) injection into COX-2 lipopolysaccharide-treated rats; format: functional
[14] = species: Rattus norvegicus
Description: Lengths of bleeding ulcer of drug-administered group

[15] = tested on: THP-1; assay: In vitro inhibitory effect on production of lipopolysaccharide (LPS)-induced IL1-beta in human THP-1 cells; format: functional, cell-based
[16] = species: Rattus norvegicus; assay: In vitro inhibitory effect on production of Prostaglandin E2 (PGE2) in rat synovial cells; format: functional
[17] = species: Rattus norvegicus; assay: In vitro inhibitory effect on production of calcium ionophore (A23187)-induced Leukotriene B4 (LTB4) in rat peritoneal cells; format: functional, cell-based

Row | Compound | inhibition in vivo at 30 mg/kg [1] [%] | IC50 [2] [µM] | IC50 [3] [µM] | IC50 [4] [µM] | other results
1 | CN1CC/C(=C/c2cc(C(C)(C)C)c(O)c(C(C)(C)C)c2)S1(=O)=O | 25.2 | 29 | 1.8 | < 0.001 | –
2 | CCN1CC/C(=C/c2cc(C(C)(C)C)c(O)c(C(C)(C)C)c2)S1(=O)=O | 7.3 | 10 | 2.5 | 0.0021 | inhibition in vivo at 10 mg/kg [5]: 11.4%
3 | CN(C)CCN1CC/C(=C\c2cc(C(C)(C)C)c(O)c(C(C)(C)C)c2)S1(=O)=O | – | – | – | 0.34 | –
4 | CCN1CC/C(=C\c2ccc(O)cc2)S1(=O)=O | – | – | – | – | IC50 [6]: > 100 µM; IC50 [7]: > 100 µM; IC50 [8]: > 1 µM
5 | CON(C)C(=O)N1CC/C(=C\c2cc(C(C)(C)C)c(O)c(C(C)(C)C)c2)S1(=O)=O | 11.2 | > 100 | 28 | 0.1 | –
6 | NC(=O)N1C(=O)/C(=C(\O)c2cccs2)c2cc(Cl)ccc21 [TENIDAP] | – | 16 | 45 | 0.053 | ED50 [9]: 0.025 mg/kg; Dose [10]: 30 mg/kg; ED30 [11]: 1 mg/kg; ED30 [12]: 4 mg/kg; ED50 [13]: 0.05 mg/kg; Ulcer index [14]: 12.9 mm
7 | CC(C)(C)c1cc(/C=C2/CCN(O)S2(=O)=O)cc(C(C)(C)C)c1O | – | – | – | 0.7 | –
8 | CCN1CC/C(=C\c2cc(C)c(O)c(C)c2)S1(=O)=O | – | – | – | – | IC50 [6]: > 100 µM; IC50 [7]: 21 µM; IC50 [8]: > 1 µM
9 | CC(C)N1CC/C(=C\c2cc(C(C)(C)C)c(O)c(C(C)(C)C)c2)S1(=O)=O | – | – | – | 0.32 | –
10 | CCCN1CC/C(=C/c2cc(C(C)(C)C)c(O)c(C(C)(C)C)c2)S1(=O)=O | 11.2 | 23 | 0.8 | 0.012 | –
11 | CC(C)(C)c1cc(/C=C2/CCNS2(=O)=O)cc(C(C)(C)C)c1O | 10.8 | 27 | 1.8 | < 0.001 | –
12 | CC(=O)N1CC/C(=C\c2cc(C(C)(C)C)c(O)c(C(C)(C)C)c2)S1(=O)=O | 21 | 28 | 4.9 | < 0.001 | –
13 | CC(C)(C)c1cc(/C=C2/CCN(c3ccc(Cl)cc3)S2(=O)=O)cc(C(C)(C)C)c1O | – | – | – | < 0.001 | –
14 | CC(C)(C)c1cc(/C=C2\CCNS2(=O)=O)cc(C(C)(C)C)c1O | 17.2 | > 100 | > 100 | 0.03 | inhibition in vivo at 10 mg/kg [5]: 8.8%
15 | CC(C)(C)c1cc(/C=C2\CCN(c3ccc(Cl)cc3)S2(=O)=O)cc(C(C)(C)C)c1O | 6.3 | > 100 | 21 | < 0.001 | –
16 | CC(C)(C)c1cc(/C=C2\CCN(C3CC3)S2(=O)=O)cc(C(C)(C)C)c1O | 21.4 | 9 | 3.2 | 0.0025 | Dose [10]: 400 mg/kg; inhibition in vivo at 10 mg/kg [5]: 32.9%; ED30 [11]: 1.7 mg/kg; ED30 [12]: 11.9 mg/kg; Ulcer index [14]: 0.7 mm

Row | Compound | inhibition in vivo at 30 mg/kg [1] [%] | IC50 [2] [µM] | IC50 [3] [µM] | IC50 [4] [µM] | other results
17 | CC(C)(C)c1cc(/C=C2\CCN(CC(=O)O)S2(=O)=O)cc(C(C)(C)C)c1O | – | – | – | 3.4 | –
18 | CCN1CC/C(=C\c2cc(C(C)C)c(O)c(C(C)C)c2)S1(=O)=O | – | – | – | – | IC50 [15]: > 100 µM; IC50 [16]: > 1 µM; IC50 [17]: > 100 µM
19 | CC(C)(C)c1cc(/C=C2\CCN(c3ccncc3)S2(=O)=O)cc(C(C)(C)C)c1O | – | – | – | 0.41 | –
20 | CCCN1CC/C(=C\c2cc(C(C)(C)C)c(O)c(C(C)(C)C)c2)S1(=O)=O | 0.3 | 19 | 1.9 | 0.013 | inhibition in vivo at 10 mg/kg [5]: 11.4%
21 | CN1OCC/C(=C\c2cc(C(C)(C)C)c(O)c(C(C)(C)C)c2)S1(=O)=O | – | – | – | 0.2 | –
22 | CC(C)(C)c1cc(/C=C2\CCN(O)S2(=O)=O)cc(C(C)(C)C)c1O | 15.8 | 90 | 9.5 | 0.01 | inhibition in vivo at 10 mg/kg [5]: 3.6%
23 | CC(C)CN1CC/C(=C\c2cc(C(C)(C)C)c(O)c(C(C)(C)C)c2)S1(=O)=O | – | – | – | 0.41 | –
24 | CCN1CC/C(=C\c2ccc(O)c(OC)c2)S1(=O)=O | – | – | – | – | IC50 [6]: > 100 µM; IC50 [7]: > 100 µM; IC50 [8]: > 1 µM
25 | CC(C)(C)c1cc(/C=C2\CCN(C(=O)NO)S2(=O)=O)cc(C(C)(C)C)c1O | 14.9 | 20 | 6 | 0.024 | –
26 | CC(C)(C)c1cc(/C=C2\CCN(c3cccnc3)S2(=O)=O)cc(C(C)(C)C)c1O | – | – | – | 0.32 | –
27 | CC(C)(C)c1cc(/C=C2\CCN(CCO)S2(=O)=O)cc(C(C)(C)C)c1O | – | – | – | 0.24 | –
28 | CC(C)(C)c1cc(/C=C2\CCCNS2(=O)=O)cc(C(C)(C)C)c1O | 14.7 | 56 | 74 | 0.0062 | –
29 | CON1CC/C(=C/c2cc(C(C)(C)C)c(O)c(C(C)(C)C)c2)S1(=O)=O | 6 | 20 | 1.5 | 0.0025 | inhibition in vivo at 10 mg/kg [5]: 5%
30 | CC(C)(C)c1cc(/C=C2\CCN(c3ccccn3)S2(=O)=O)cc(C(C)(C)C)c1O | – | – | – | 1 | –
31 | CCN1CC/C(=C\c2cc(OC)c(O)c(OC)c2)S1(=O)=O | – | – | – | – | IC50 [6]: > 100 µM; IC50 [7]: 2.6 µM; IC50 [8]: > 1 µM
32 | CON1CC/C(=C\c2cc(C(C)(C)C)c(O)c(C(C)(C)C)c2)S1(=O)=O | 26.5 | > 100 | 3 | < 0.001 | inhibition in vivo at 10 mg/kg [5]: 35.2%; ED30 [11]: 2.4 mg/kg; ED30 [12]: 34.7 mg/kg
